Patent US8846711B2, “Heterocyclic acrylamides and their use as pharmaceuticals” (Fab Pharma S.A.S., priority 2009, dated 2014)
Converted amounts (≈) assume the structure as drawn.

Key:
Assay type in all cases: cell-based
[1] = tested on: Staphylococcus aureus NRS482; experiment: MIC determination using agar dilution method; conditions: MRSA / NRS 482, read-out: MIC (μg/ml) NRS482
Procedure: (§1) Antibacterial activity was determined on strains from Mutabilis internal collection.
(§2) This protocol is compliant with Clinical Laboratory Standards Institute (CLSI) methodology as described in M7-A7 document of the CLSI. The compound to be tested is incorporated into Mueller-Hinton Agar medium (Fluka, Reference 70191) at one concentration per plate according to a geometric series of reason 2. Plates are inoculated with mid-log phase bacteria (inoculum=1×10^4 cfu/spot) and incubated overnight at 35° C. […] All manipulations, but compound handling (in pure DMSO), are performed under sterile conditions. The final DMSO concentration of DMSO in the plates is 2%. Vancomycin is used as reference.

[2] = tested on: Staphylococcus aureus NRS120; experiment: MIC determination using agar dilution method; conditions: MRSA / NRS 120, read-out: MIC (μg/ml) NRS120
Procedure: as §1, §2

[3] = tested on: Staphylococcus aureus NRS483; experiment: MIC determination using agar dilution method; conditions: MRSA / NRS 483, read-out: MIC (μg/ml) NRS483
Procedure: as §1, §2

[4] = tested on: Staphylococcus aureus NRS127; experiment: MIC determination using agar dilution method; conditions: MRSA / NRS 127, read-out: MIC (μg/ml) NRS127
Procedure: as §1, §2

[5] = tested on: Staphylococcus aureus NRS269; experiment: MIC determination using agar dilution method; conditions: MRSA / NRS 269, read-out: MIC (μg/ml) NRS269
Procedure: as §1, §2

[6] = tested on: Staphylococcus aureus NRS22; experiment: MIC determination using agar dilution method; conditions: MRSA / NRS 22, read-out: MIC (μg/ml) NRS22
Procedure: as §1, §2

[7] = tested on: Staphylococcus aureus NRS383; experiment: MIC determination using agar dilution method; conditions: MRSA / NRS 383, read-out: MIC (μg/ml) NRS383
Procedure: as §1, §2

[8] = tested on: Staphylococcus aureus NRS192; experiment: MIC determination using agar dilution method; conditions: MRSA / NRS 192, read-out: MIC (μg/ml) NRS192
Procedure: as §1, §2

[9] = tested on: Staphylococcus aureus NRS128; experiment: MIC determination using agar dilution method; conditions: MSSA / NRS 128, read-out: MIC (μg/ml) NRS128
Procedure: as §1, §2

[10] = tested on: Staphylococcus aureus NRS386; experiment: MIC determination using agar dilution method; conditions: MRSA / NRS 386, read-out: MIC (μg/ml) NRS386
Procedure: as §1, §2

[11] = tested on: Staphylococcus aureus NRS384; experiment: MIC determination using agar dilution method; conditions: MRSA / NRS 384, read-out: MIC (μg/ml) NRS384
Procedure: as §1, §2

[12] = tested on: Staphylococcus aureus NRS123; experiment: MIC determination using agar dilution method; conditions: MRSA / NRS 123, read-out: MIC (μg/ml) NRS123
Procedure: as §1, §2

[13] = tested on: Staphylococcus aureus NRS385; experiment: MIC determination using agar dilution method; conditions: MRSA / NRS 385, read-out: MIC (μg/ml) NRS385
Procedure: as §1, §2

[14] = tested on: Staphylococcus aureus NRS484; experiment: MIC determination using agar dilution method; conditions: MRSA / NRS 484, read-out: MIC (μg/ml) NRS484
Procedure: as §1, §2

[15] = tested on: Staphylococcus aureus NRS262; experiment: MIC determination using agar dilution method; conditions: MSSA / NRS 262, read-out: MIC (μg/ml) NRS262
Procedure: as §1, §2

[16] = tested on: Staphylococcus aureus NRS382; experiment: MIC determination using agar dilution method; conditions: MRSA / NRS 382, read-out: MIC (μg/ml) NRS382
Procedure: as §1, §2

[17] = tested on: Staphylococcus aureus NRS119; experiment: MIC determination using agar dilution method; conditions: MRSA / NRS 119, read-out: MIC (μg/ml) NRS119
Procedure: as §1, §2

[18] = tested on: Staphylococcus aureus NRS130; experiment: MIC determination using agar dilution method; conditions: MSSA / NRS 130, read-out: MIC (μg/ml) NRS130
Procedure: as §1, §2

[19] = tested on: Staphylococcus aureus NRS100; experiment: MIC determination using agar dilution method; conditions: MRSA / NRS 100, read-out: MIC (μg/ml) NRS100
Procedure: as §1, §2

[20] = tested on: Staphylococcus aureus NRS121; experiment: MIC determination using agar dilution method; conditions: MRSA / NRS 121, read-out: MIC (μg/ml) NRS121
Procedure: as §1, §2

MSSA (IHMA #555189) = experiment: MIC determination using susceptibility method (broth microdilution); conditions: Staphylococcus aureus, read-out: MIC (μg/ml) MSSA (IHMA #555189)
Procedure: (§3) Minimum inhibitory concentrations (MICs) were determined by broth microdilution according to CLSI guidelines (CLSI, M100-20^1, M7-A8^2, M27-A3^3). The compounds were tested in the range from […]. Colonies were taken directly from a second-pass culture plate and prepared to a suspension equivalent to the 0.5 McFarland standard using normal saline. […] The panels were incubated at 35° C. for 16 to 20 hours before reading the MIC endpoints. The compounds of Examples 12, 29, 59, 63 and 66-71 were dissolved in DMSO to make the initial solutions of 5120 μg/ml. These solutions were diluted 1:10 in sterile water to a stock solution of 512 μg/ml. The stock solutions were further diluted into the appropriate broth medium for the sequential dilutions used in the broth microdilution panels. S. pneumoniae was tested in Mueller Hinton (MH) broth with 3% lysed horse blood and C. albicans was tested in RPMI-1640 medium. All other organisms were tested in MH broth.

E. faecalis (ATCC 29212) = experiment: as above; conditions: Enterococcus faecalis, ATCC29212, read-out: MIC (μg/ml) E. faecalis (ATCC 29212)
Procedure: as §3

MRSA (IHMA #510059) = experiment: as above; conditions: Staphylococcus aureus, read-out: MIC (μg/ml) MRSA (IHMA #510059)
Procedure: as §3

[21] = tested on: S. pneumoniae (ATCC 49619); experiment: as above; conditions: Streptococcus pneumoniae, ATCC49619, read-out: MIC (μg/ml) S. pneumoniae (ATCC 49619)
Procedure: as §3

S. aureus ATCC 29213 = experiment: as above; conditions: Staphylococcus aureus, ATCC29213, read-out: MIC (μg/ml) S. aureus ATCC 29213
Procedure: as §3

O=C1CCc2cc(/C=C/C(=O)N3CC(OCc4cccs4)C3)cnc2N1 [Example 12, 6-{(1E)-3-Oxo-3-[3-(2-thienylmethoxy)azetidin-1-yl]prop-1-en-1-yl}-3,4-dihydro-1,8-naphthyridin-2(1H)-one]
MIC [1]: 4 µg/mL (≈ 10.8 µM)
MIC [2]: 2 µg/mL (≈ 5.41 µM)
MIC [3]: 4 µg/mL (≈ 10.8 µM)
MIC [4]: 2 µg/mL (≈ 5.41 µM)
MIC [5]: 4 µg/mL (≈ 10.8 µM)
MIC [6]: 4 µg/mL (≈ 10.8 µM)
MIC [7]: 4 µg/mL (≈ 10.8 µM)
MIC [8]: 4 µg/mL (≈ 10.8 µM)
MIC [9]: 1 µg/mL (≈ 2.71 µM)
MIC [10]: 4 µg/mL (≈ 10.8 µM)
MIC [11]: 4 µg/mL (≈ 10.8 µM)
MIC [12]: 2 µg/mL (≈ 5.41 µM)
MIC [13]: 2 µg/mL (≈ 5.41 µM)
MIC [14]: 4 µg/mL (≈ 10.8 µM)
MIC [15]: 4 µg/mL (≈ 10.8 µM)
MIC [16]: 4 µg/mL (≈ 10.8 µM)
MIC [17]: 2 µg/mL (≈ 5.41 µM)
MIC [18]: 2 µg/mL (≈ 5.41 µM)
MIC [19]: 2 µg/mL (≈ 5.41 µM)
MIC [20]: 2 µg/mL (≈ 5.41 µM)
MIC (MSSA (IHMA #555189)): 1 µg/mL (≈ 2.71 µM)
MIC (E. faecalis (ATCC 29212)): > 128 µg/mL
MIC (MRSA (IHMA #510059)): 1 µg/mL (≈ 2.71 µM)
MIC [21]: > 128 µg/mL
MIC (S. aureus ATCC 29213): 1 µg/mL (≈ 2.71 µM)
